Converted amounts (≈) assume the structure as drawn. Read-outs that look alike come from different tables or passages of the source. Non-standard residues stand in square brackets, D forms with d. Residues, ends and D or L forms follow the SMILES beside them. *: point of attachment. NHhexadecyl = CCCCCCCCCCCCCCCCN*
Experiments:
[1] = tested on: E. coli ATCC 25922; test: Cytoplasmic membrane depolarization, DiSC3(5); assay type: cell-based, Escherichia coli; conditions: peptide at 2× MIC or 1,000 µM, positive control Triton X-100
Method: The dye 3,3′-dipropylthiadicarbocyanine iodide DiSC3(5) was employed to evaluate perturbation of the bacterial membrane by our designed arginine-rich peptides. For this, a black 96-well microtiter plate containing 150 µl E. coli cells (OD600=0.5) in MH broth per well was incubated with 0.5 µM DiSC3(5) in 5 mM HEPES buffer (pH 7.4, supplemented with 5 mM glucose and 0.1 M KCl) for 15 min to allow for fluorescence quenching. Then, 2× MIC or 1 mM peptide was added, and changes in fluorescence were monitored in real-time (λex=622 nm, λem=670 nm) using a microplate reader.

[2] = tested on: E. coli ATCC 25922; test: Membrane integrity, PI uptake; assay type: cell-based, Escherichia coli; conditions: E. coli ATCC 25922, 5 µg ml−1 PI, 1 h
Method: (§1) Propidium iodide (PI) uptake was used to assess the permeabilization of the bacterial membrane upon incubation with peptides. E. coli and S. aureus cells, adjusted to an OD600 of 0.5, were placed into a 96-well plate containing 5 mM HEPES buffer (pH 7.4, supplemented with 5 mM glucose) and incubated with 5 µg ml^−1 PI for 15 min. Afterwards, different peptide concentrations were added, and PI uptake was rapidly measured every 10 min over a 1 h period using a Tecan Spark® microplate reader (λex=515 nm, λem=620 nm).

[3] = tested on: S. aureus ATCC 12600; test: Membrane integrity, PI uptake; assay type: cell-based, Staphylococcus aureus; conditions: S. aureus ATCC 12600, 5 µg ml−1 PI, 1 h
Method: as §1

[4] = tested on: E. coli; test: Intracellular ROS, DCFH-DA; assay type: cell-based, Escherichia coli; conditions: peptides at MIC, 1/2× MIC, 1/4× MIC, 4 h, 37 °C
Method: (§2) Total reactive oxygen species (ROS) was measured using an oxidation-sensitive fluorescent dye, 2′,7′-dichlorodihydrofluorescein diacetate (DCFH-DA). For this assay, E. coli and S. aureus cultures were adjusted to an OD600 of 0.3 in MH broth and exposed to peptides at MIC, 1/2× MIC and 1/4× MIC, or to positive control (5 mM H2O2) for 4 h at 37 °C. Cells were centrifuged at 4,000 r.p.m. for 10 min at 4 °C and resuspended in PBS containing 10 µM DCFH-DA. The suspension was incubated under the same conditions for 30 min. Finally, cells were washed twice with PBS, and 150 µl aliquots were transferred to 96-well plates. Oxidized DCF products were detected using a Tecan Spark® microplate reader with excitation at 485 nm and emission at 530 nm. Additionally, 10 µl of E. coli cells incubated with D-R4F4 at MIC, 1/2×MIC and 1/4×MIC was collected for imaging using an All-in-One Fluorescence Microscope (Keyence, Japan).

[5] = tested on: S. aureus; test: Intracellular ROS, DCFH-DA; assay type: cell-based, Staphylococcus aureus; conditions: peptides at MIC, 1/2× MIC, 1/4× MIC, 4 h, 37 °C
Method: as §2

[6] = tested on: S. aureus (ATCC12600); assay type: cell-based, Staphylococcus aureus
Method: (§3) The MIC of arginine-based peptides was assessed using the microbroth dilution approach. Our in vitro screening included a panel of Gram-negative bacteria, Escherichia coli (ATCC 25922 and enterohaemorrhagic O157:H7) and Pseudomonas aeruginosa (PA01 and the drug-resistant strain NCTC 13437), and Gram-positive bacteria (Staphylococcus aureus ATCC 12600). Five-millilitre overnight cultures in Lysogeny broth, prepared from single isolated colonies, were diluted to 5×10^6 c.f.u. ml^−1 mid-log phase in Mueller–Hinton (MH) broth. Next, peptide concentrations (0 to 1 mM) were serially diluted twofold in 96-well plates and incubated overnight at 37 °C with the tested bacterial strains. In each case, the MIC was determined as the lowest peptide concentration at which no detectable bacterial growth was observed, employing an absorbance-based assay using a Tecan Spark® multimode plate reader. Subsequently, 10 µl aliquots from each peptide dilution were transferred to MH agar (1.5%) plates to determine the minimum bactericidal concentration (MBC) which was assessed by establishing at which concentration no visible growth of bacteria (assessed via colony formation) on the plate was observed.

[7] = target: T1, Sequencing Grade Modified Trypsin (Sus scrofa, UniProt P00761); test: Stability with trypsin by LC-MS; assay type: in vitro ADME; conditions: 5 µM SGMT trypsin, 50 mM Tris-HCl, 1 mM CaCl2, pH 7.6, 24 h, 37 °C; read-out LC-MS (ESI)
T1 construct: purchased Promega
T1 sequence (P00761 9-231): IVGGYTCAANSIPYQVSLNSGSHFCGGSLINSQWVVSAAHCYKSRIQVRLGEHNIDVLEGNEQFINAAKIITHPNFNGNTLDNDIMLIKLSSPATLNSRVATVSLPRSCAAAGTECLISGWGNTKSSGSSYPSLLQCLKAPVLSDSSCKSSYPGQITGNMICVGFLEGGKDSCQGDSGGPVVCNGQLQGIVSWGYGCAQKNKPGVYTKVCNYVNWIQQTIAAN
Method: (§4) The antimicrobial activity and structural stability of arginine-rich peptides were evaluated in the presence of human serum (20% and 50 %) and 5 µM Sequencing Grade Modified Trypsin (SGMT, Promega). Briefly, fresh human blood was collected in EDTA tubes and allowed to clot at room temperature for 1 h. Serum was then collected following centrifugation at 2,000 r.p.m. for 10 min at 4 °C. Peptides were incubated with 20%, 50% human serum and 5 µM SGMT in 50 mM Tris-HCl buffer (1 mM CaCl₂, pH 7.6) for 24 h at 37 °C. After the incubation period, the solutions were further incubated with E. coli (ATCC 25922 and O157:H7), P. aeruginosa (PA01, NCTC13437) and S. aureus (ATCC12600), and the MIC was assessed as described in the ‘Antibacterial assessment’ section. Additionally, the samples were analysed using electrospray ionization MS to monitor structural changes based on the molecular weight of the peptides.

[8] = Stability in human serum by LC-MS; assay type: in vitro ADME; conditions: human serum (20% and 50%), 24 h, 37 °C; read-out LC-MS (ESI)
Method: as §4

[9] = tested on: E. coli (ATCC25922); assay type: cell-based, Escherichia coli; conditions: E. coli ATCC25922
Method: as §3

[10] = tested on: E. coli (O157:H7); assay type: cell-based, Escherichia coli
Method: as §3

[11] = tested on: P. aeruginosa (NCTC13437); assay type: cell-based, Pseudomonas aeruginosa; conditions: P. aeruginosa NCTC13437 (drug-resistant)
Method: as §3

[12] = tested on: P. aeruginosa (PA01); assay type: cell-based, Pseudomonas aeruginosa; conditions: P. aeruginosa PA01
Method: as §3

[13] = tested on: E. coli (25922); assay type: cell-based, Escherichia coli
Method: as §3, §4

[14] = tested on: P. aeruginosa (PA01); assay type: cell-based, Pseudomonas aeruginosa
Method: as §3, §4

[15] = tested on: S. aureus (12600); assay type: cell-based, Staphylococcus aureus
Method: as §3, §4

[16] = tested on: E. coli; test: Live/dead SYTO 9/PI fluorescence imaging; assay type: cell-based, Escherichia coli; conditions: mid-log phase E. coli, 2× MIC; red = damaged membranes
[17] = 10 µl aliquots plated on MH agar, no visible colonies
[18] = MH broth, 5×10^6 cells, 24 h, 37 °C, absorbance 600 nm, triplicate
[19] = control without serum or trypsin
[20] = peptide incubated with 5 µM SGMT trypsin in 50 mM Tris-HCl, 1 mM CaCl2, pH 7.6, 24 h at 37 °C before MIC
[21] = peptide incubated with 20% human serum 24 h at 37 °C before MIC
[22] = peptide incubated with 50% human serum 24 h at 37 °C before MIC

Compound: CCCCCCCCCCCCCCCCNC(=O)[C@H](CCCNC(=N)N)NC(=O)[C@H](CCCNC(=N)N)NC(=O)[C@H](CCCNC(=N)N)NC(=O)[C@@H](N)CCCNC(=N)N [Peptide R4-C16] (H-RRRR-NHhexadecyl; N-terminus and C-terminus assumed)
- Cytoplasmic membrane depolarization, DiSC3(5) fluorescence [1]: significantly higher fluorescence levels compared to the positive control
- PI uptake, membrane integrity [2]: membrane-disruptive activity
- PI uptake, membrane integrity [3]: membrane-disruptive activity
- Intracellular ROS levels [4]: highest modulation of ROS levels
- Intracellular ROS levels [5]: highest modulation of ROS levels

Compound: N=C(N)NCCC[C@@H](N)C(=O)N[C@@H](CCCNC(=N)N)C(=O)N[C@H](CCCNC(=N)N)C(=O)N[C@@H](CCCNC(=N)N)C(=O)N[C@H](Cc1ccccc1)C(=O)N[C@@H](Cc1ccccc1)C(=O)N[C@H](Cc1ccccc1)C(=O)N[C@@H](Cc1ccccc1)C(=O)O [D-R4F4] (H-[dR]R[dR]R[dF]F[dF]F-OH)
- MBC ([6]; ATCC12600): 250 µM (≈ 308 µg/mL)
- MIC ([6]; ATCC12600, 24 h): 125 µM (≈ 154 µg/mL)
- Stability with trypsin (LC chromatogram and mass spectrum) [7]: appeared at the same retention time in both the absence and presence of proteases
- Stability with serum proteases (LC chromatogram and mass spectrum) [8]: appeared at the same retention time in both the absence and presence of proteases

Compound: Polymyxin B [reference compound]
- MBC [9, 17]: 4.8 µM
- MIC [9, 18]: 2.8 µM
- MBC [10, 17]: 4.8 µM
- MIC [10, 18]: 4.8 µM
- MBC [11, 17]: 38.4 µM
- MIC [11, 18]: 9.6 µM
- MBC [12, 17]: 4.8 µM
- MIC [12, 18]: 2.4 µM
- MBC ([6]; S. aureus ATCC12600, 10 µl aliquots plated on MH agar, no visible colonies): > 76.8 µM
- MIC ([6]; S. aureus ATCC12600, MH broth, 5×10^6 cells, 24 h, 37 °C, absorbance 600 nm, triplicate): > 76.8 µM
- MIC, Control [13, 19]: 2.8 µM
- MIC, Trypsin [13, 20]: 2.4 µM
- MIC, 20% human serum [13, 21]: 2.8 µM
- MIC, 50% human serum [13, 22]: 2.4 µM
- MIC, Control [14, 19]: 2.4 µM
- MIC, Trypsin [14, 20]: 2.4 µM
- MIC, 20% human serum [14, 21]: 2.4 µM
- MIC, 50% human serum [14, 22]: 2.4 µM
- MIC, Control [15, 19]: >76.8 µM
- MIC, Trypsin [15, 20]: >76.8 µM
- MIC, 20% human serum [15, 21]: >76.8 µM
- MIC, 50% human serum [15, 22]: >76.8 µM
- Membrane damage, live/dead SYTO 9/PI staining [16]: high presence of red-stained cells indicative of damaged membranes
